Some test systems named below: HCC 2998; ACHN; SNB-19; TK-10; UO-31; HCT-15; NCI-H226; A549; NCI-H23; COLO 205; SF-268; OVCAR-8; SNB-75; SK-MEL-2; M14; HOP-62; SN12C; NCI-H522; 786-0.
Common to all, as to assay: inhibition of tumour cell growth, NCI panel, 48 h

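48-hour exposure; five concentrations; linearly interpolated endpoints. GI50 marks 50% less growth.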 Activity calls are given as the source filed them. No stated cut-off is given here; in the data, active = GI50 up to about 1.1 µM and inactive = higher.

Consider `Cc1cc(O)nc(NN2C(Cl)C(=O)C2c2cccc([N+](=O)[O-])c2)n1` (stereo unspecified), for which the GI50 with HCC 2998 was 18.5 µM (inactive); with ACHN, 29.2 µM (inactive); in the assay with SNB-19 it was 44 µM (inactive); in the assay with TK-10 it was 38.3 µM (inactive); in the assay on UO-31, 36.6 µM (inactive); in the assay with HCT-15 it was 15.1 µM. The GI50 with NCI-H226 is 12.3 µM (inactive); with A549, 76 µM (inactive); in the assay with NCI-H23, 20.7 µM (inactive); with COLO 205, 22.7 µM (inactive); in the assay with SF-268, 35.2 µM (inactive); in the assay with OVCAR-8, 34.8 µM (inactive). The GI50 with SNB-75 was 28 µM (inactive); in the assay on SK-MEL-2, 19 µM (inactive); in the assay on M14, 17.3 µM (inactive); with HOP-62, 31.4 µM (inactive); with SN12C it was 18.1 µM (inactive).

Consider `CSC1=Nc2ccccc2N(C)c2c1c(-c1ccccc1)nn2C`, for which the GI50 was 7.4 µM (inactive) in the assay on NCI-H522; 13.3 µM (inactive) in the assay with HCC 2998; 29.9 µM (inactive) with ACHN; 66.8 µM (inactive) with TK-10; 56.9 µM in the assay with HCT-15; 50.4 µM (inactive) in the assay on A549. The GI50 was 14.1 µM (inactive) with NCI-H23; 38 µM (inactive) with COLO 205; 17 µM (inactive) in the assay with SF-268; 32.7 µM (inactive) in the assay on OVCAR-8; > 100 µM (inactive) with SNB-75; 23.2 µM (inactive) in the assay on SK-MEL-2. Also, the GI50 in the assay on M14 was 41.9 µM (inactive); in the assay with SN12C it was 54.5 µM (inactive).

Turning to `O=C1CSC(c2ccc(Cl)cc2Cl)N1c1ccc(Oc2ccc(Cl)cc2)c(Cl)c1` (stereo unspecified), the GI50 in the assay on 786-0 is 17.5 µM (inactive); with NCI-H522, 10.4 µM (inactive); in the assay with HCC 2998, 31 µM (inactive); in the assay with ACHN, 35.7 µM (inactive); with SNB-19, 23.6 µM (inactive); in the assay with TK-10 it was 51.4 µM (inactive). Also, the GI50 in the assay with UO-31 was 7.08 µM (inactive); with HCT-15, 25.6 µM; with NCI-H226, 22.1 µM (inactive); in the assay on A549 it was 27 µM (inactive); in the assay on NCI-H23, 27 µM (inactive); with COLO 205, 25.5 µM (inactive). In addition, the GI50 in the assay on SF-268 was 16 µM (inactive); with OVCAR-8, 29.9 µM (inactive); in the assay on SNB-75 it was 20.7 µM (inactive); with SK-MEL-2, 22.4 µM (inactive); with M14, 23.9 µM (inactive); with HOP-62, 23.8 µM (inactive). Moreover, the GI50 in the assay on SN12C was 37.7 µM (inactive).

For `Cc1c2c(n(CCN(C)C)c1C)NN=C(C#N)S2(=O)=O`, the GI50 in the assay with 786-0, with HCC 2998, in the assay with ACHN, in the assay on SNB-19, with TK-10 and with UO-31 was > 100 µM (inactive) in each case. Besides, the GI50 was more than 100 µM in the assay with HCT-15; > 100 µM (inactive) with NCI-H226; > 100 µM (inactive) in the assay on A549; > 100 µM (inactive) in the assay on NCI-H23; > 100 µM (inactive) with COLO 205; > 100 µM (inactive) with SF-268. Moreover, the GI50 in the assay on OVCAR-8, in the assay on SNB-75, in the assay on SK-MEL-2, in the assay with M14, in the assay with HOP-62 and with SN12C was > 100 µM (inactive) in each case.

On to `O=C(c1cccs1)N(C(=S)N1CCN(c2ccccc2)CC1)c1ccccc1`, for which the GI50 in the assay with 786-0, in the assay on NCI-H522, with ACHN, in the assay on SNB-19, with TK-10 and in the assay on UO-31 was > 100 µM (inactive) each time. Moreover, the GI50 in the assay with HCT-15 is more than 100 µM; in the assay with NCI-H226, 47.6 µM (inactive); in the assay on A549, > 100 µM (inactive); in the assay with NCI-H23, > 100 µM (inactive); in the assay with COLO 205, > 100 µM (inactive); with SF-268 it was > 100 µM (inactive). Moreover, the GI50 with OVCAR-8, with SNB-75, in the assay on SK-MEL-2, in the assay with M14, in the assay with HOP-62 and in the assay with SN12C was > 100 µM (inactive) each time.

As for `Oc1ccccc1C1C=C(c2ccccc2)NC(N2CCCCC2)=C1c1nc2ccccc2[nH]1` (stereo unspecified), the GI50 was 12.7 µM (inactive) in the assay with 786-0; 14 µM (inactive) in the assay with NCI-H522; 3.08 µM (inactive) in the assay with HCC 2998; 18.2 µM (inactive) in the assay on ACHN; 15 µM (inactive) with SNB-19; 19.9 µM (inactive) in the assay on TK-10. Moreover, the GI50 is 11.1 µM (inactive) in the assay with UO-31; 18.2 µM in the assay on HCT-15; 16.7 µM (inactive) in the assay with NCI-H226; 15.7 µM (inactive) in the assay on A549; 15.3 µM (inactive) in the assay with NCI-H23; 2.19 µM (inactive) in the assay with COLO 205. For the same compound, the GI50 is 13.2 µM (inactive) in the assay on SF-268; 15.9 µM (inactive) in the assay with OVCAR-8; 4.57 µM (inactive) in the assay with SNB-75; 13 µM (inactive) with M14; 14.1 µM (inactive) with HOP-62; 16.1 µM (inactive) with SN12C.

In the case of `Cc1ccc([N+](=O)[O-])cc1S(=O)(=O)Nc1ccc(C2=NN(c3ccc([N+](=O)[O-])cc3[N+](=O)[O-])C(c3ccccc3)C2)cc1` (stereo unspecified), the GI50 with 786-0 was 15.4 µM (inactive); in the assay with NCI-H522, 10.1 µM (inactive); with ACHN it was 17.6 µM (inactive); in the assay with SNB-19 it was 17.1 µM (inactive); in the assay on TK-10, 26.4 µM (inactive); with UO-31, 14.8 µM (inactive). The GI50 in the assay on HCT-15 is 14.6 µM; in the assay with NCI-H226 it was 17.4 µM (inactive); in the assay on A549 it was 19.1 µM (inactive); in the assay with NCI-H23, 14.6 µM (inactive); with COLO 205, 19.2 µM (inactive); with SF-268, 13.1 µM (inactive). The GI50 in the assay on OVCAR-8 was 17 µM (inactive); in the assay with SNB-75, 22.5 µM (inactive); in the assay on SK-MEL-2, 13.6 µM (inactive); in the assay on M14, 17.4 µM (inactive); with HOP-62 it was 15.5 µM (inactive); in the assay on SN12C, 17.2 µM (inactive).

Take `CCOC(=O)c1c(-c2ccccc2)c(C(OC(c2ccccc2)c2c(-c3ccccc3)c(C(=O)OCC)n3ccccc23)c2ccccc2)c2ccccn12` (stereo unspecified): the GI50 with 786-0, in the assay on NCI-H522, with HCC 2998, in the assay with ACHN, in the assay on SNB-19 and in the assay with TK-10 was > 100 µM (inactive) throughout. Further, the GI50 in the assay with UO-31 was > 100 µM (inactive); in the assay with HCT-15 it was more than 100 µM; with NCI-H226, > 100 µM (inactive); with A549, > 100 µM (inactive); with NCI-H23, > 100 µM (inactive); in the assay on COLO 205, > 100 µM (inactive). Further, the GI50 in the assay with SF-268, with OVCAR-8, in the assay with SNB-75, with SK-MEL-2, in the assay with M14 and in the assay with HOP-62 was > 100 µM (inactive) in each case. The GI50 with SN12C was > 100 µM (inactive).

The values are drawn from ChEMBL document CHEMBL1201862, “PubChem BioAssay data set” (2004).
